Some results are limits rather than exact numbers.

For `NC(=O)c1cccc(OCc2cccc(O)c2)c1`, the melting point was in the range of 122 to 123 °C.

For the compound `CCN(CC)CCOc1ccc2cc3ccc(OCCN(CC)CC)c(CO)c3nc2c1CO`, the melting point lay in the range of 95 to 96 °C.

With `COc1cn(C)c(=O)c(OS(=O)(=O)C(F)(F)F)n1`, the melting point lay within 107 to 108 °C.

Compound `Cc1nc(-n2cn[nH]c2=O)sc1C(=O)NCc1cccnc1` gave a melting point of 278 to 279 °C.

As for `O=C1COc2ccc(C3=Cc4ccccc4SC3c3ccccc3)cc2N1` (centres undefined), the melting point was in the range of 226 to 227 °C.

As for `NNC(=S)c1ccccc1`, the melting point is 66 to 68 °C.

On to `CNC(=O)C1=CC2(CCSCC2)Oc2ccc([N+](=O)[O-])cc21`, for which the melting point was 208 to 209 °C.

Take `Cc1c(C)c2c(c(C)c1Br)C(c1ccc(-c3ccccc3)cc1)CO2` (centres undefined): the melting point fell in the range of 153 to 154 °C.

`O=C(Nc1nc(C(F)(F)F)c(I)s1)c1cc(C(F)(F)F)cc(C(F)(F)F)c1` gave a melting point of 172 to 173 °C.

For `Cc1ccc(C(=O)Nc2ccc3[nH]cc(C4CCN(C)CC4)c3n2)s1`, the melting point lay in the range of 123 to 127 °C.

In turn, `CC1(C)C=C(N2CCCS2(=O)=O)c2cc(S(C)(=O)=O)ccc2O1` displayed a melting point of 226 to 227 °C.

Regarding `C=CCSCCON=C(C(=O)O)c1csc(NC=O)n1`, the melting point is 70 to 78 °C.

`CNc1ccc(C2=NCCO2)cc1`: the melting point lay within 102 to 105 °C.

`CCCCCCCCCCCCCCCCNc1ccc(C(=O)NS(C)(=O)=O)cc1` gave a melting point of 173 to 175 °C.

In the case of `COc1ccc2[nH]c(C(=O)c3ccccc3)c(NC(C)=O)c2c1OC`, the melting point was in the range of 118 to 120 °C.

The compound `O=c1c2cc(F)ccc2nc(NCc2ccccn2)n1-c1ccccc1Cl` returned a melting point of 156 to 158 °C.

For `COc1ccc2c(c1)CCC1C2=CCC2(C)C(OC(C)(C)C)CCC12` (single isomer, unassigned; (+)), the melting point fell in the range of 131 to 132 °C.

With `CC(C)(C)OC(=O)NCC1Cc2ccc(OCc3ccccc3)cc2C1` (centres undefined), the melting point lay within 95 to 98 °C.

As for `O=C(CN1CCCC1)Nc1ccc2c(c1)C(=O)c1cc(NC(=O)CN3CCCC3)ccc1C2=O`, the melting point turned out to be 201 °C.

Compound `COc1ccc(CCNc2ncnc3occc23)cc1` yielded a melting point of 135 to 136 °C.

Compound `Cc1cc(Nc2cncc(NC3CCCCC3)n2)n[nH]1` had a melting point of 194 to 196 °C.

Consider `CCCCCCCCS(=O)(=O)Nc1cc(C(=O)Nc2ccccc2)ccc1OC`, for which the melting point lay within 154 to 155 °C.

The compound `CC(C)c1nn(-c2ccc(Cl)cn2)cc1CCCOc1ccccc1CC(=O)O` displayed a melting point of 141 to 142 °C.

Compound `CN(Cc1ccccc1)C(=O)Nc1cc(C(C)(C)C)on1` had a melting point of 107 to 108 °C.

Turning to `COc1ccc(C=CC2=NN=C(C)Cc3cc(OC)c(OC)cc32)c(OC)c1`, the melting point was 148 to 150 °C.

The compound `c1cc(-c2c(-c3ccsc3)nc3ccc(N4CC5CNCC5C4)nn23)ccn1` (centres undefined) yielded a melting point of 196 to 198 °C.

For the compound `COc1ccc(C2c3c(C)c(N4CCC(c5ccc(OC)c(OC)c5)CC4)c(C)c(C)c3OC2(C)C)cc1` (centres undefined), the melting point fell in the range of 154 to 156 °C.

In turn, `O=c1c(-c2cccc(C(F)(F)F)c2)c(Cl)cnn1-c1ccc(F)cc1` came in with a melting point of 88 to 90 °C.

For the compound `CC(C)CCCC(=S)SCC(C)C`, the melting point was in the range of 43 to 44 °C.

The compound `CCNC(=O)N1CC(Oc2ccc(C(F)(F)F)cc2)C1` returned a melting point of 94 to 96 °C.

As to `CC(C)(C)c1ccc(C2(CN)CC2)cc1`, the melting point was 39 to 41 °C.

The compound `CC(=O)Oc1c(C)c(C)c2c(c1C)CCC(C)(C(=O)OCCNCc1cc(N3CCCC3)nc(N3CCCC3)n1)O2` (centres undefined) gave a melting point of 69.5 to 76 °C.

In turn, `COc1ccc(-c2cc(=O)n(Cc3ccccc3)nc2-c2ccc(OC)c(F)c2)cc1F` displayed a melting point of 114 to 115 °C.

The compound `COC(=O)c1cc(-c2ccc(S(C)(=O)=O)cc2)n(C2CCCCCC2)n1` showed a melting point of 115 to 117 °C.

Take `NC(=O)c1ccc(Oc2nccc(-c3c(-c4ccc(F)cc4)ncn3C3CCNCC3)n2)cc1`: the melting point lay in the range of 229 to 230 °C.

The compound `Cn1cnc(C=CC(=O)NC2CCNC(=O)C2)c1` (centres undefined) had a melting point of 280 to 282 °C.

As to `Cc1cc(-c2cccc(C(F)(F)F)c2)n2ncc(C(=O)c3ccccc3)c2n1`, the melting point lay in the range of 153 to 154 °C.

As to `O=C(Cc1cccc2ccccc12)N1CC=C(c2cccc(C(F)(F)F)c2)CC1`, the melting point fell in the range of 137 to 140 °C.

The compound `COC(=O)c1cc(Cl)cc(N)c1O` returned a melting point of 65 to 67 °C.

In the case of `Clc1ccc(C2CCN(Cc3cncc(-c4ccccc4)c3)CC2)cc1`, the melting point was 142 to 143 °C.

On to `C[Si](C)(C)CC(CN)CC(=O)O` (centres undefined), for which the melting point lay in the range of 167 to 168 °C.

As for `c1ccc2c(NCC3CCCCC3)c3cnn(C4CCCC4)c3nc2c1`, the melting point lay within 290 to 292 °C.

In turn, `O=c1[nH]c2cc([N+](=O)[O-])ccc2c(O)c1-c1ccccc1` registered a melting point of over 330 °C.

Take `COc1cc(OC)nc(C(CC2CC2)C(=O)NS(C)(=O)=O)n1` (centres undefined): the melting point is 92 to 94 °C.

`O=C(O)c1cc2cc(OCc3ccccc3)ccc2cc1OCc1ccccc1` displayed a melting point of 163 to 165 °C.

The compound `Clc1ccc2c3c([nH]c2c1)C1=CCCCN1CC3` had a melting point of 165 °C.

For the compound `CN1CC(CCn2cccn2)Oc2ncccc2C1=O` (centres undefined), the melting point lay within 132 to 134 °C.

Regarding `O=S(=O)(NCc1ccccc1)c1ccc(Br)cc1`, the melting point is 116 to 117 °C.

`ClCc1ccc(-c2nsc3ccccc23)cc1` came in with a melting point of 86 to 89 °C.

Take `COC(=O)c1cc(N(C)C)c(N2CCCCC2)c(N(C)C)c1`: the melting point is 103 to 105 °C.

`CCCCC(Nc1ccncc1)c1ccccc1` (centres undefined): the melting point came to 118 °C.

Consider `CC1(C)OC(=O)c2c(O)cc(OCc3ccccc3)cc2O1`, for which the melting point amounted to 80 °C.

In the case of `CN(C)CCNc1nc(C2C(=O)Nc3ccc(Br)cc32)c2cn(C)nc2n1` (centres undefined), the melting point lay in the range of 279 to 289 °C.

On to `CC1(C)OC(CCN)CC(CC(=O)O)O1` (centres undefined), for which the melting point amounted to 165 °C.

`N#CC1=C(C2CCN(C(=N)N)CC2)Nc2n[nH]cc2C1c1cccc2nonc12` (centres undefined): the melting point is over 270 °C.

The compound `CC(C)(C)n1c(=O)n(-c2ccnc(NC(=O)NCc3ccccn3)c2)c2ccccc21` gave a melting point of 164 to 165 °C.

For the compound `Nc1cccc(Cn2c(-c3ccc(-c4ccccc4)cc3)ccc2-c2ccccc2Cl)n1`, the melting point lay within 181 to 185 °C.

`CCOc1cc(C(=O)N2CCN(C(=O)C3=Cc4cc(OC)c(OC)cc4CCC3)CC2)cc(OCC)c1OCC` showed a melting point of 125 to 126 °C.

For `CCOC(=O)n1c(SC(F)(F)C(F)F)nc(-c2ccc(F)cc2)c1-c1ccc(F)cc1`, the melting point was in the range of 137 to 139 °C.

In turn, `C=C1C(O)C(COC(=O)CCCCCCCCCCCCCCCCC)OC1n1ccc(NC(=O)CCCCCCCCCCCCCCCCC)nc1=O` (centres undefined) returned a melting point of 135 to 139 °C.

`N#Cc1ccc2sc3c(c2c1)CC(C=O)CC3` (centres undefined): the melting point was in the range of 172 to 173 °C.

Take `CC(C)Oc1ccccc1C1(OCC(=O)O)C(=O)Nc2ccc(Cl)cc21` (centres undefined): the melting point lay within 225 to 228 °C.

`CC(C)(C)c1ccc(OCCOc2ccccc2[N+](=O)[O-])c([N+](=O)[O-])c1` yielded a melting point of 114 to 116 °C.

`CCOC(=O)CC(NS(=O)(=O)c1cccc(-c2cccc(NC(=NC#N)NCc3ccccn3)c2)c1)c1ccccc1` (centres undefined) returned a melting point of 82 °C.

Turning to `c1ccc2c(c1)SCCCN2N=C1CCNCC1`, the melting point was in the range of 113 to 115 °C.

In turn, `O=C(c1cccs1)c1cnn2c(-c3cccc(N(C(=O)c4c(Cl)cccc4Cl)C(=O)c4c(Cl)cccc4Cl)c3)ccnc12` had a melting point of 238 to 240 °C.

`CCOC(=O)c1cc(=O)cc(-c2ccc([N+](=O)[O-])cc2)o1` displayed a melting point of 160 to 162 °C.

Compound `CCN(CC)C(=O)c1cccc(I)c1C(=O)O` displayed a melting point of 120 to 122 °C.

As for `COc1cccc2c1C(N)=NS2(=O)=O`, the melting point came to 270 °C.

As for `O=C1CCc2c(Cl)sc(-c3ccccc3F)c21`, the melting point is 133 to 135 °C.

Compound `CC(C)n1nc(OS(=O)(=O)C(F)(F)F)ccc1=O` had a melting point of 45 to 46 °C.

Regarding `COc1cc(OC)nc(NC(=O)NS(=O)(=O)c2ccccc2S(=O)(=O)NC(=O)Nc2nc(OC)cc(OC)n2)n1`, the melting point lay within 201 to 203 °C.

Compound `O=C(NCC1Cc2cc(Br)cc3[nH]c(=O)c(=O)n1c23)c1ccccc1` (centres undefined) had a melting point of 180 to 182 °C.

Regarding `COc1ccc(NC(C)=O)cc1C(=O)O`, the melting point lay within 208 to 210 °C.

`CCOC(=O)c1sc(Oc2ccc(C(C)=O)c(OC)c2)c2c1CCc1cnn(C)c1-2` yielded a melting point of 132 to 133 °C.

As to `O=[N+]([O-])c1cc([N+](=O)[O-])c(Nc2cccc3c2OC(F)(F)O3)c(C(F)(F)F)c1`, the melting point fell in the range of 144 to 146 °C.

Turning to `CC(=O)OCc1cc2ccccc2[nH]1`, the melting point was found to be 112 °C.

Turning to `CS(=O)(=O)c1ccc(-c2c(-c3ccccc3F)[nH]c3ccc(Cl)cc23)cc1`, the melting point is 246 to 248 °C.

As to `Nc1ncnc2c1c(-c1cccnc1)nn2Cc1oc2ccccc2c(=O)c1-c1ccccc1`, the melting point is 253 to 255 °C.

With `Cc1ccc([N+](=O)[O-])c2c1CCCC2=O`, the melting point is 104 to 107 °C.

With `NS(=O)(=O)c1ccc(N2CCN(Cc3cn4cc(Cl)ccc4n3)CC2)cc1`, the melting point lay within 255 to 256 °C.

In turn, `Cc1ccc(-c2nc(N)nc(N)c2[N+](=O)[O-])o1` had a melting point of 196 to 197 °C.

`Cc1nsc(OCC(Cl)(Cl)Cl)c1S(N)(=O)=O`: the melting point lay within 140 to 142 °C.

In turn, `CNC(=O)ON=C(C)CN(c1c(C)cccc1C)S(C)(=O)=O` returned a melting point of 130 to 134 °C.

Regarding `O=C(O)Cc1ccc2c(c1)C(=O)c1ccccc1CN2`, the melting point was 132 to 143 °C.

In the case of `Cc1nc(-c2ccc(-c3ccccc3S(=O)(=O)Nc3onc(C)c3C)cc2)co1`, the melting point lay in the range of 90 to 100 °C.

On to `CCC(C)OC(=O)CCC(S)(C#N)C1=NCCc2cc(OC)c(OC)cc21` (centres undefined), for which the melting point turned out to be 120 °C.

Compound `COc1cc2ncc(C#N)c(Nc3cccc(Oc4ccccc4)c3)c2cc1OC` returned a melting point of 253 to 254 °C.

The compound `COC1OC(=O)C(OC)(OC)C1Cl` (centres undefined) came in with a melting point of 90 °C.

The record behind these values is a melting point compilation (Tetko et al.; mined from patent text by program, amines drawn as free bases though some values may be those of a salt).
